The values that follow come from ChEMBL document CHEMBL1275256, “Contribution of a plasmid-borne blaOXA-58 gene with its hybrid promoter provided by IS1006 and an ISAba3-like element to beta-lactam resistance in acinetobacter genomic species 13TU” (2010).

Structures are written as SMILES. In brackets after ≈: the same amount, converted by molar mass. Activity calls are given as the source filed them. The calls are words filed in the database; no cut-off is given here.

What all share (assay type): functional
A short description of test [1]: Antimicrobial activity against Acinetobacter genomic species 13TU by Vitek II system. Conditions: Acinetobacter nosocomialis.
Test [2] is described as follows: Antimicrobial activity against Acinetobacter genomic species 13TU ATCC 17903 harboring pYMAb3 plasmid by Vitek II system. Conditions: Acinetobacter nosocomialis.
A short description of test [3]: Antimicrobial activity against Acinetobacter genomic species 13TU ATCC 17903 harboring pOXA-58-6 plasmid by Vitek II system. Conditions: Acinetobacter nosocomialis.
Test [4] can be described thus: Antimicrobial activity against Acinetobacter genomic species 13TU ATCC 17903 by Vitek II system. Conditions: Acinetobacter nosocomialis.
Test [5] in a line: Antimicrobial activity against Acinetobacter genomic species 13TU ATCC 17903 harboring pOXA-58-7 plasmid by Vitek II system. Conditions: Acinetobacter nosocomialis.
Test [6] is described as follows: Antimicrobial activity against Acinetobacter genomic species 13TU ATCC 17903 harboring pOXA-58-5 plasmid by Vitek II system. Particulars: Acinetobacter nosocomialis.
Test [7] can be described thus: Antimicrobial activity against Acinetobacter genomic species 13TU by agar dilution method. Conditions: Acinetobacter nosocomialis.
Test [8] can be described thus: Antimicrobial activity against Acinetobacter genomic species 13TU ATCC 17903 harboring pOXA-58-7 plasmid by agar dilution method. Particulars: Acinetobacter nosocomialis. For orientation: In agar dilution, organisms are placed on agar that contains the substance at set levels.
Test [9] is described as follows: Antimicrobial activity against Acinetobacter genomic species 13TU ATCC 17903 by agar dilution method. Conditions: Acinetobacter nosocomialis.
The nature of test [10]: Antimicrobial activity against Acinetobacter genomic species 13TU ATCC 17903 harboring pOXA-58-6 plasmid by agar dilution method. Particulars: Acinetobacter nosocomialis.
Test [11] is described as follows: Antimicrobial activity against Acinetobacter genomic species 13TU by Vitek II system in presence of Tazobactam. Conditions: Acinetobacter nosocomialis.
Test [12] is described as follows: Antimicrobial activity against Acinetobacter genomic species 13TU ATCC 17903 harboring pOXA-58-5 plasmid by agar dilution method. Particulars: Acinetobacter nosocomialis.
Test [13] can be described thus: Antimicrobial activity against Acinetobacter genomic species 13TU ATCC 17903 by Vitek II system in presence of Tazobactam. Particulars: Acinetobacter nosocomialis.
Test [14] is described as follows: Antimicrobial activity against Acinetobacter genomic species 13TU ATCC 17903 harboring pOXA-58-5 plasmid by Vitek II system in presence of Tazobactam. Particulars: Acinetobacter nosocomialis.
The nature of test [15]: Antimicrobial activity against Acinetobacter genomic species 13TU ATCC 17903 harboring pYMAb3 plasmid by agar dilution method. Conditions: Acinetobacter nosocomialis.
Test [16] concerns Acinetobacter nosocomialis. As to the kind of experiment: Antimicrobial activity against Acinetobacter genomic species 13TU ATCC 17903 harboring pOXA-58-6 plasmid by Etest method.
Test [17] relates to Acinetobacter nosocomialis. As to the kind of experiment: Antimicrobial activity against Acinetobacter genomic species 13TU ATCC 17903 harboring pOXA-58-5 plasmid by Etest method.

Usually MIC stands for the least concentration at which growth counts as inhibited. `CO/N=C(\C(=O)N[C@@H]1C(=O)N2C(C(=O)O)=C(COC(N)=O)CS[C@H]12)c1ccco1` [CEFUROXIME]: the MIC is no less than 64 µg/mL in test [1]; 16 µg/mL (≈ 37.7 µM) in test [2]; 16 µg/mL (≈ 37.7 µM) in test [3]; 16 µg/mL (≈ 37.7 µM) in [4]; 16 µg/mL (≈ 37.7 µM) in [5]; no less than 64 µg/mL in test [6].
As to `CCN1CCN(C(=O)N[C@@H](C(=O)N[C@@H]2C(=O)N3[C@@H]2SC(C)(C)[C@@H]3C(=O)O)c2ccccc2)C(=O)C1=O` [PIPERACILLIN], the MIC in test [7] is greater than 1020 µg/mL; in test [8], 32 µg/mL (≈ 61.8 µM); in test [9], 16 µg/mL (≈ 30.9 µM); in [10], 512 µg/mL (≈ 989 µM); in test [11], no less than 128 µg/mL; in test [12], greater than 1020 µg/mL. The MIC was no more than 4 µg/mL in test [13], no less than 128 µg/mL in test [14] and 16 µg/mL (≈ 30.9 µM) in test [15].
Turning to `C[C@@H](O)[C@H]1C(=O)N2C(C(=O)O)=C(S[C@@H]3CN[C@H](C(=O)N(C)C)C3)[C@H](C)[C@H]12` [MEROPENEM], the MIC in test [7] amounted to 8 µg/mL (≈ 20.9 µM); in test [8], 0.5 µg/mL (≈ 1.3 µM); in test [9], 0.5 µg/mL (≈ 1.3 µM); in [10], 8 µg/mL (≈ 20.9 µM); in test [12], 16 µg/mL (≈ 41.7 µM); in test [15], 0.5 µg/mL (≈ 1.3 µM). Besides, in test [16], the outcome was inactive.
Turning to `CC(C)(O/N=C(\C(=O)N[C@@H]1C(=O)N2C(C(=O)[O-])=C(C[n+]3ccccc3)CS[C@H]12)c1csc(N)n1)C(=O)O` [CEFTAZIDIME], the MIC amounted to 16 µg/mL (≈ 29.3 µM) in test [7]; 4 µg/mL (≈ 7.32 µM) in [8]; 4 µg/mL (≈ 7.32 µM) in test [9]; 4 µg/mL (≈ 7.32 µM) in [10]; 4 µg/mL (≈ 7.32 µM) in [12]; 4 µg/mL (≈ 7.32 µM) in [15].
In the case of `CC1(C)S[C@@H]2[C@H](NC(=O)[C@H](C(=O)O)c3ccsc3)C(=O)N2[C@H]1C(=O)O` [TICARCILLIN], the MIC in test [7] is greater than 1020 µg/mL; in test [8], 256 µg/mL (≈ 666 µM); in test [9], 16 µg/mL (≈ 41.6 µM); in test [10], greater than 1020 µg/mL; in test [12], greater than 1020 µg/mL; in test [15] it was 16 µg/mL (≈ 41.6 µM).
For `C[C@@H](O)[C@H]1C(=O)N2C(C(=O)O)=C(SCCNC=N)C[C@H]12` [IMIPENEM ANHYDROUS], the MIC in test [7] worked out at 16 µg/mL (≈ 53.4 µM); in [8] it was 0.5 µg/mL (≈ 1.67 µM); in test [9], 0.25 µg/mL (≈ 0.835 µM); in [10] it was 16 µg/mL (≈ 53.4 µM); in [12], 32 µg/mL (≈ 107 µM); in test [15], 0.25 µg/mL (≈ 0.835 µM). For the same compound, the result in test [17] was inactive.
In the case of `CO/N=C(\C(=O)N[C@@H]1C(=O)N2C(C(=O)[O-])=C(C[N+]3(C)CCCC3)CS[C@H]12)c1csc(N)n1` [CEFEPIME], the MIC in [7] came out at 128 µg/mL (≈ 266 µM); in test [9], 2 µg/mL (≈ 4.16 µM); in test [10] it was 2 µg/mL (≈ 4.16 µM); in test [12], 4 µg/mL (≈ 8.32 µM); in test [15], 2 µg/mL (≈ 4.16 µM).
As to `CC1(C)S[C@@H]2[C@H](NC(=O)[C@H](N)c3ccc(O)cc3)C(=O)N2[C@H]1C(=O)O` [AMOXICILLIN], the minimal inhibitory concentration (MIC) is greater than 1020 µg/mL in test [7]; 256 µg/mL (≈ 701 µM) in test [8]; 64 µg/mL (≈ 175 µM) in test [9]; greater than 1020 µg/mL in test [10]; greater than 1020 µg/mL in test [12]; 64 µg/mL (≈ 175 µM) in test [15].
